Reference: patent publication US4618682A, “2-amino-4,5-dihydro-1H-imidazole-1-carboxanilides” (McNeilab, Inc., priority 1985, dated 1986)
Where a name gives a salt, the structure may show the parent alone.

Legend:
[1] = heat sensitivity of isolated salt; format: physicochemical
Protocol: Maintained a temperature of -10° to -13° C. throughout the addition and stirred at -10° to -15° for 3 more hours. Stored the reaction mixture in the refrigerator at +4° C. overnight. Allowed to warm to +10° C. then placed in ice/ H2 O bath and acidified to pH<3 with 10% HCl. Added to 1400 ml of ice/H2 O and stirred. Filtered some insoluble material and the filtrate basified with solid K2 CO3 (keep cold!) to pH 8-9. Filtered the resulting white solid, the free base of the product. Immediately suspended in 200 ml of MeOH and dissolved by addition of ethereal HCl to pH<3. The solvent and excess HCl were removed in vacuo to yield the crude product, a white solid. The free base was regenerated again as above and converted to the hydrochloride as before. […] 210°--212° C.

Gastric fistula rat = experiment: acute gastric fistula rat test (antisecretory screen); format: in vivo, Female Sprague-Dawley rats
Protocol: The principal antisecretory screen is the acute gastric fistula rat test which is carried out as follows: Female Sprague-Dawley rats are used for this study. The weights range from 125-250 gms; however, weights in any given test have a range of ±20 gms. The rats are fasted 24 hours before testing, water is given ad lib. At the time of fasting, the rats are placed in individual cages with wide mesh bottoms. This eliminates the problem of cannibalism and coprophagia. On the day of testing, the rats are weighed beforehand to determine the weight range and to allow for even distribution. Surgery is carried out under light ether anesthesia. As soon as the rat is anesthetized, its teeth are removed using a small pinch pliers. A midline incision is made on the abdomen about 11/2 cm long and the stomach is exposed. If, at this point, the stomach is filled with food or fecal material, the rat is discarded except for orally administered rats. In this case, the stomach contents are gently squeezed into the duodenum. Using a 4-0 polyester fiber suture, a purse string stitch is placed on the fundic portion of the stomach taking care to avoid any blood vessels in the area. A small nick is made into the stomach in the center of the purse string and a cannula, consisting of a small vinyl tube with a flange on one end, is put into the stomach and the purse string is closed tightly around the flange. Immediately following this, the rat is dosed intraduodenally using a volume of 0.5 ml per 100 gm body weight. The abdominal wall and skin are closed simultaneously with three to four 18 mm wound clips. The rat is then placed in a box containing a longitudinal slit which allows the cannula to hang freely and the rat is able to move about unencumbered. At the completion of the procedure, the time is marked 0 minutes. The rat is allowed to stabilize for 30 minutes, at which time the collection tube is discarded and replaced with a clean collection tube to receive the gastric juice. Only a one-hour collection is made for a screening study. In evaluation studies, one- and two-hour collections are made. At the end of the study, the cannula is pulled out and the rat is sacrificed. The gastric contents collected are drained into a centrifuge tube and centrifuged to pack down the sediment. The volume is read and a 1 ml aliquot of the supernatant is put into a beaker containing distilled water and titrated to pH 7 using 0.01 N NaOH. Mean values are determined for volume, titratable acid and total acid output where volume equals total ml of gastric juice minus sediment, titratable acid (mEq/1) equals amount of 0.01 N NaOH needed to titrate the acid to pH 7 times 10 and total acid output equals titratable acid times volume. Results are reported in percent inhibition over control values. In studies using oral administration, the drugs are dosed in a volume of 1 ml per 100 gm body weight one hour before surgery (pretreatment equals 90 minutes). In subcutaneous studies, the drug may be given immediately after the surgical procedure (pretreatment equals 30 minutes) or after the 30-minute stabilization period when the collection tube is changed (pretreatment time equals 0 minutes). The volume used in subcutaneous studies is 0.2 ml per 100 gm body weight.

[2] = tested on: Spontaneously hypertensive rat; experiment: Rodent Antihypertensive Screen (arterial pressure and heart rate, aortic cannula); format: in vivo, adult spontaneously hypertensive rats (Charles River); conditions: 35 mg/kg p.o., spontaneously hypertensive rat
Text: This test evaluates compounds for effects on arterial pressure and heart rate. In this test, the arterial pressure of adult spontaneously hypertensive rats (Charles River) is monitored directly via an aortic cannula. Rats are anesthetized with an inhalation anesthetic (methoxyflurane). The left carotid artery is isolated and cannulated. The tip of the cannula is advanced to the aorta and the cannula is exteriorized behind the neck at the level of the scapula. Animals are placed in individual cages and allowed to recover from the anesthetic and are kept unrestrained. The arterial cannula is connected to the pressure transducer which is attached to the recorder. Heart rate is determined from the arterial pressure recording. The test compounds are administered either orally (p.o.) by gavage or by intraperitoneal (i.p.) injection. The arterial pressure and heart rate are monitored for a minumum of 24 hours. A test compound is considered to be active as an antihypertensive agent if the mean arterial pressure (MAP) indicates a fall of >15 mm of Hg. Each animal serves as his own control. The results of this test employing at least 3 rats per dose level for each compound and performed with various compounds of the present invention are shown in Table I.

NC1=NCCN1C(=O)Nc1ccc(Cl)c(Cl)c1 [Example 8, 2-Amino-N-(3,4-dichlorophenyl)-4,5-dihydro-1H-imidazole-1carboxamide Monohydrochloride Monohydrate, Compound with 1,1'Oxybisethane (12:1)]
sensitivity to heat [1]: sensitive to heat | loss of HCl on heating ([1]; above 50° /vac): may lose HCl | inhibition in vivo at 20 mg/kg (Gastric fistula rat; intraduodenal, 20 mg/kg I.D., read-out: % Inhibition of gastric secretion): 96% | ED50 (Gastric fistula rat; po, 1 hr): 24.8 mg/kg | Duration [2]: 2.0 h | Effect on heart rate [2]: -68 beats/min | Max. decr. in MAP [2]: 44 mm Hg
